Experimental data taken from patent publication US20050049294A1, “Methods of using [3.2.0] heterocyclic compounds and analogs thereof” (priority 2003, published 2005).
Several values for one entry are separate records, joined by “and”; a condition that tells them apart may be missing. Equal entries are not always repeated. Where two headings read alike, the source gives them in different places.

Columns and labels:
[1] = target: chymotrypsin-like activity of human erythrocyte 20S proteasomes (Homo sapiens, UniProt P28074); experiment: biochemical; conditions: EC50, chymotrypsin-like activity of human erythrocyte 20S proteasomes, separate lots of proteasomes
Experimental: The substrate, suc-LLVY-AMC, was prepared as a 20 mM solution in DMSO and stored at −20° C. Human erythrocyte 20S proteasomes were obtained from BIOMOL (Cat. # SE-221). The proteasome can cleave suc-LLVY-AMC into suc-LLVY and free AMC and the activity can then be determined by measuring the fluorescence of the released AMC (λex=390 nm and λem=460 nm ). The proteasomes were activated by SDS and stored on ice as with the experiments using rabbit muscle proteasomes. […] The series was then diluted 20-fold with assay buffer and pre-incubated with proteasomes at 37° C. The reaction was initiated with substrate, and the release of AMC was followed in a Fluoroskan microplate fluorimeter. Data were collected and plotted as the mean of triplicate points.

[2] = tested on: IκBα in HEK293 cells and NF-κB/Luc 293 reporter clone; experiment: Western blot of phosphorylated-IκBα and total IκBα; assay type: cell-based, human; conditions: 50 and 500 nM, 1 hour pre-treatment, TNF-α 10 ng/mL 30 minutes
Experimental: Endogenous protein levels were assessed in both HEK293 cells and the NF-κB/Luc 293 reporter clone.
Antibodies against total and phosphorylated forms of IκBα were used to determine the endogenous level of each protein and anti-Tubulin antibody was used to confirm equal loading of protein.

[3] = tested on: p21 and p27 in HEK293 cells and HEK293 NF-κB/Luciferase reporter clone; experiment: Western blot of cell cycle regulatory proteins p21 and p27; assay type: cell-based, human; conditions: various concentrations, preliminary results
From the text: The ubiquitin-proteasome pathway is an essential proteolytic system involved in cell cycle control by regulating the degradation of cyclins and cyclin-dependent kinase (Cdk) inhibitors such as p21 and p27. Pagano, et al., Science 269:682 (1995), Kisselev, et al., Chem Biol 8:739 (2001), King, et al., Science 274:1652 (1996). Furthermore, p21 and p27 protein levels are increased in the presence of proteasome inhibitors. Fukuchi, et al., Biochim Biophys Acta 1451:206 (1999), Takeuchi, et al., Jpn J Cancer Res 93:774 (2002).
The Western blots presented in FIG. 33 were reprobed using antibodies against p21 and p27 to determine the endogenous level of each protein and anti-Tubulin antibody was used to confirm equal loading of protein.

[4] = tested on: 60 human tumor cell lines; experiment: NCI screen of 60 human tumor cell lines; assay type: cell-based; conditions: 48 h, read-out: mean GI50
[5] = tested on: DU 145 cells; experiment: Cell growth inhibition (resazurin, 48 hours), DU 145; assay type: cell-based, human; conditions: for EC50: read-out: EC50 (nM), mean ± SD
[6] = tested on: MIA PaCa-2 cells; experiment: Cell growth inhibition (resazurin, 48 hours), MIA PaCa-2; assay type: cell-based; conditions: Table 2, MIA PaCa-2, human pancreatic carcinoma, read-out: EC50 (nM), mean ± SD
[7] = tested on: Jurkat cells; experiment: Cytotoxicity against Jurkat cells; assay type: cell-based, human
[8] = tested on: CCD-27sk cells; experiment: Cytotoxic activity against normal human fibroblasts; assay type: cell-based; conditions: 48h, panel of b226
[9] = tested on: PARP and Pro-Caspase 3 cleavage in RPMI 8226 cells; experiment: Cleavage of PARP and Pro-Caspase 3 (western blot), RPMI 8226; assay type: cell-based, human; conditions: 100 nM, 0, 8 or 24 hours
Experimental: Total protein lysates were made and 20 μg of the lysates were then resolved under reducing/denaturing conditions and blotted onto nitrocellulose. The blots were then probed with anti-PARP or anti-caspase 3 antibodies followed by stripping and reprobing with an anti-actin antibody.
25 μg of the lysates were then resolved under reducing/denaturing conditions and blotted onto nitrocellulose. The blots were then probed with anti-PARP or anti-caspase 3 antibodies followed by stripping and reprobing with an anti-actin antibody.

[10] = in vitro; conditions: mouse
[11] = Cytotoxicity / growth inhibition, summary over several cell lines; conditions: human, mouse
[12] = tested on: tumor cell lines; experiment: as above; conditions: 48 h, read-out: EC50 values against RPMI 8226 and the prostate cell lines

## C[C@@]12OC(=O)[C@]1([C@@H](O)[C@@H]1C=CCCC1)NC(=O)[C@@H]2CCCl [Formula II-16, Salinosporamide A]
[1]
  EC50: ~0.25 nM and 0.045 to 0.247 nM and 0.045 to 0.25 nM
[2]
  degradation of total IκBα and phospho-IκBα level: reduced the degradation of total IκBα but also retained the phospho-IκBα level
[3]
  p21 and p27 protein levels: elevated
[4]
  GI50: < 10 nM
[5]; Homo sapiens, Table 6, DU 145 (n = 3)
  EC50: 37 ± 10 nM
[5]; Table 2, DU 145, human prostate carcinoma, 48 hours
  EC50: 37 ± 10 nM
[5]; Table 6, DU 145 (n = 3)
  % cytotoxicity, mean ± SD: 75 ± 4%
[6]
  EC50: 46 nM
[7]; Homo sapiens, Jurkat
  EC50: 10 nM
[7]; Table 5, Jurkat Cells
  % max cell kill: 97%
[8]
  EC50: 196 nM
[9]
  induction of PARP cleavage: noticeable at 8 hours and complete by 24 hours
[10]
  viability at […]: 96%
[11]
  EC50 at 48 h: 10 to 200 nM
[12]
  EC50: 10 to 37 nM
